Measured values reported in patent publication US20150031714A1, “METHODS AND COMPOSITIONS FOR PREVENTION OF ALLERGIC REACTION” (Baylor College of Medicine, priority 2013, published 2015).

Columns and labels:
[1] = target: T1, Stat3-DNA (hSIE) complexes (Homo sapiens, UniProt P40763); experiment: Electrophoretic mobility shift assay (EMSA), Stat3:hSIE DNA binding; format: biochemical; settings: 300 μM, extracts of IL-6-stimulated HepG2 cells
T1 construct: high salt extracts were prepared from HepG2 cells incubated without or with IL-6 (30 ng/ml) for 30 minutes; endogenous in cells; host or cells: HepG2 (IL-6-stimulated), whole-cell high-salt extract
Protocol: Electrophoretic mobility shift assays were performed using whole-cell extracts prepared from HepG2 cells without and with stimulation with IL-6 (30 ng/ml) for 30 min. Protein (20 μg) was incubated with radiolabeled duplex oligonucleotide (hSIE) and DMSO without or with the indicated compounds (300 uM) for 60 minutes at 37° C. then separated by PAGE. The gel was dried and autoradiographed; the portion of the gel corresponding to the Stat3-bound hSIE band is shown. Data shown are representative of 2 studies.
Electrophoretic Mobility Shift Assay (EMSA): EMSA was performed using the hSIE radiolabeled duplex oligonucleotide as a probe as described (Tweardy et al., 1995). Briefly, high salt extracts were prepared from HepG2 cells incubated without or with IL-6 (30 ng/ml) for 30 minutes. Protein concentration was determined by Bradford Assay and 20 ug of extract was incubated with compound (300 uM) for 60 minutes at 37 °C. […] Gels were dried and autoradiographed.
Once in the nucleus, Stat3 dimers bind to specific DNA elements to activate and, in some instances, repress gene transcription. […] Compounds that bind to the phosphopeptide-binding site of Stat3 might be expected to do the same. […]

breast cancer cell lines = experiment: Apoptosis of breast cancer cell lines with constitutive Stat3 activation; format: cell-based

T1 sequence (P40763 2-770 limits assumed, one chain of several): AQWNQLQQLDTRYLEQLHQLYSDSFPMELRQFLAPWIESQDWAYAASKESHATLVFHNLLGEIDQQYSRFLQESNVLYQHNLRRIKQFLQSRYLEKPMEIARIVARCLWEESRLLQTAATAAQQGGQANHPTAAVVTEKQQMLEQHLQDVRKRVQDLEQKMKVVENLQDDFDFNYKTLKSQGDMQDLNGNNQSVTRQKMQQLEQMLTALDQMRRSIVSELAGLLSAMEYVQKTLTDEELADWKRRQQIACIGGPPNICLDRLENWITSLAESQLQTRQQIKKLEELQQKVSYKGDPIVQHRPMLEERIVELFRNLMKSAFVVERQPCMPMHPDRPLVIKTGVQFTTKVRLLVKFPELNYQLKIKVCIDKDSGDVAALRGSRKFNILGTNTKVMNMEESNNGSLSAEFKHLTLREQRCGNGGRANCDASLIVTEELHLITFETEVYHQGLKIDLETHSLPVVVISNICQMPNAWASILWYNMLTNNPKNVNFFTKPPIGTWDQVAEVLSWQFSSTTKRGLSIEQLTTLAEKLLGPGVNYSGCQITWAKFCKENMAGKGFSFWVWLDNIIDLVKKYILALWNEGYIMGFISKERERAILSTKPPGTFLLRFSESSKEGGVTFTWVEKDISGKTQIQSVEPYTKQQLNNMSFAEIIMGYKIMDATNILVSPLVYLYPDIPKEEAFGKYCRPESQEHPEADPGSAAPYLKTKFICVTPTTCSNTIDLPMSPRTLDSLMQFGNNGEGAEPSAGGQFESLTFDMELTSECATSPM

O=C(O)c1ccc(C=CC(=O)c2ccc3c(c2)OCCO3)cc1 [Cpd3, 4-[3-(2,3-dihydro-1,4-benzodioxin-6-yl)-3-oxo-1-propen-1-yl]benzoic acid]
Stat3:hSIE band intensity (amount of hSIE shifted) [1]: reduced the amount of hSIE shifted by half or greater
induction of apoptosis of breast cancer cell lines (breast cancer cell lines): induced apoptosis preferentially
